{"source": "paper PMC5905968", "about": "“Evaluation of the fusion inhibitor P3 peptide as a potential microbicide to prevent HIV transmission in women” (PLoS ONE, 2018)", "key": {"[1]": {"tested_on": "vaginal epithelium of BALB/c mice", "assay": "BALB/c mice vaginal irritation test with histological score", "format": "in vivo", "parameters": "key to Epithelial lesion / Inflammatory infiltrate / Vascular congestion / Edema/fibrosis / Total Score: 0 (no change) when no injury or the observed changes were within normal range; 1 (minimum) when changes were sparse but exceeded those considered normal; 2 (light) when injuries were identifiable but with no severity; 3 (moderate) for significant injury that could increase in severity; 4 (very serious) for very serious injuries that occupy most of the analyzed tissue", "details": "for Edema/fibrosis / Epithelial lesion / Inflammatory infiltrate / Vascular congestion / Total Score: 7 days; for Total Score: sum of the four lesion scores", "method": "Female BALB/c mice (6–8 weeks-old) (Charles River Laboratories, Wilmington, MA) were pretreated subcutaneously with 2mg of medroxyprogesterone acetate (Depo-Provera; Pfizer, NY, USA) in PBS (Lonza, Verviers, Belgium). After five days, 30μl of test formulation with different doses of P3 diluted in PBS was applied intravaginally daily for 7 days by vaginal gavage to animals previously anesthetized with isoflurane (Forane, Abbott, Madrid). Controls included mice that received PBS (placebo group) and 3% nonoxynol-9 (N9) in PBS (irritation control group). On the eighth day, mice were sacrificed and genital tract tissue were extracted and fixed in 4% paraformaldehyde for histological analysis. The animals were distributed in groups of three mice each: group placebo only treated with PBS (1–3), group A treated with dose of 0.06mg/day ([…]) of P3 in PBS (4–6), group B treated with dose of 0.2mg/day (1522.7 μM) of P3 in PBS (7–9), group C treated with dose of 0.4mg/day (3045.3 μM) of P3 in PBS (10–12) and group irritation control treated with 3% N9 in PBS (13–15).\nThe presence of histological lesions in the mouse vaginas was evaluated with hematoxylin-eosin staining. Samples were embedded in paraffin by submersion in increasing concentrations of ethanol in water (Rectapur, VWR, England), two baths of xylene (Analar (VWR, England) and another of paraffin, before being placed in a paraffin mold. Subsequently, they were cut using a semimotorized microtome (RM2145 Leica, Germany) and processed for staining. For dewaxing, samples were submersed into two baths of xylene solution (10 min) and three baths in descending order of ethanol (100%, 90% and 70%) (5 min), before being stained with hematoxylin (Merck, Germany) for 5 min and eosin (Merck, Germany) for another 5 min. Post-eosin staining dehydration was performed with passages in increasing concentrations of ethanol (70%, 90% and 100%) and a bath of xylene solution. Finally, they were mounted with D.P.X. (Prolabo, VWR, Spain).\nThe existence of injury in vaginal epithelium, inflammatory infiltrate, vascular congestion and/or edema in the submucosa was evaluated in each biological sample. The values (score) assigned for each of these lesions were: 0 (no change) when no injury or the observed changes were within normal range; 1 (minimum) when changes were sparse but exceeded those considered normal; 2 (light) when injuries were identifiable but with no severity; 3 (moderate) for significant injury that could increase in severity; 4 (very serious) for very serious injuries that occupy most of the analyzed tissue. These values were added up and determined the level of vaginal irritation as minimum 1–4, average 5–8, moderate 9–11 and severe 12–16 [34]."}, "[2]": {"tested_on": "spermatozoa", "assay": "Spermicidal activity: sperm motility (CASA) and viability (Eosin Y)", "format": "cell-based, human", "details": "114 μM P3, 37°C, 0, 30, 60, 120 and 240 min, versus control without P3; donors n = 3", "method": "Sperm was obtained from normal donors (n = 3) after signing a written informed consent. […] Spermatozoa viability was evaluated by dye exclusion method using a solution of Eosin Y (5mg/mL). Two hundred spermatozoa were counted with a phase-contrast microscope (Olympus, Modell BH-2), differentiating the live (unstained) spermatozoa from the dead (stained) cells. Sperm motility was evaluated in a Makler chamber using a computer-aided sperm analysis system (CASA, Hamilton Thorne Research, MA, USA). At least five microscopic fields were assessed in a systematic way to classify 200 spermatozoa motility. Each spermatozoon is graded according to cell velocity: progressive motility (i.e.,>5 μm/s), non-progressive motility (<5 μm/s) and immotility."}, "[3]": {"details": "456 μM/day P3 in PBS intravaginally, mouse 4"}, "[4]": {"details": "456 μM/day P3 in PBS intravaginally, mouse 5"}, "[5]": {"details": "456 μM/day P3 in PBS intravaginally, mouse 6"}, "[6]": {"details": "1522.7 μM/day P3 in PBS intravaginally, mouse 7"}, "[7]": {"details": "1522.7 μM/day P3 in PBS intravaginally, mouse 8"}, "[8]": {"details": "1522.7 μM/day P3 in PBS intravaginally, mouse 9"}, "[9]": {"details": "3045.3 μM/day P3 in PBS intravaginally, mouse 10"}, "[10]": {"details": "3045.3 μM/day P3 in PBS intravaginally, mouse 11"}, "[11]": {"details": "3045.3 μM/day P3 in PBS intravaginally, mouse 12"}}}
{"smiles": "CC[C@H](C)[C@H](NC(=O)[C@H](CC(N)=O)NC(=O)[C@H](C)NC(=O)[C@H](CCC(=O)O)NC(=O)[C@H](CC(C)C)NC(=O)[C@H](Cc1ccc(O)cc1)NC(=O)[C@H](CCCNC(=N)N)NC(=O)[C@@H](NC(=O)[C@H](CCC(N)=O)NC(=O)[C@H](CCC(N)=O)NC(=O)[C@H](CCC(=O)O)NC(=O)[C@H](Cc1c[nH]c2ccccc12)NC(=O)[C@H](CCC(=O)O)NC(=O)[C@H](CCC(N)=O)NC(=O)[C@H](Cc1c[nH]c2ccccc12)NC(C)=O)C(C)C)C(=O)N[C@@H](CO)C(=O)N[C@@H](CCC(N)=O)C(=O)N[C@@H](CCCNC(=N)N)C(=O)N[C@@H](CC(C)C)C(=O)N[C@@H](CCC(=O)O)C(=O)N[C@@H](CCC(N)=O)C(=O)N[C@@H](C)C(=O)N[C@@H](CCC(N)=O)C(=O)N[C@H](C(=O)N[C@@H](CCC(N)=O)C(=O)N[C@@H](CCC(N)=O)C(=O)N[C@@H](CCC(=O)O)C(=O)N[C@@H](CCCCN)C(=O)N[C@@H](CC(N)=O)C(=O)N[C@@H](CCSC)C(=O)N[C@@H](Cc1ccc(O)cc1)C(=O)N[C@@H](CCC(=O)O)C(=O)N[C@@H](CC(C)C)C(=O)N[C@@H](CCC(N)=O)C(N)=O)[C@@H](C)CC", "note": "[P3]", "values": [{"measurement": "Edema/fibrosis", "setting": "[1]; [3]", "result": 0}, {"measurement": "Epithelial lesion", "setting": "[1]; [3]", "result": 1}, {"measurement": "Inflammatory infiltrate", "setting": "[1]; [3]", "result": 0}, {"measurement": "Vascular congestion", "setting": "[1]; [3]", "result": 1}, {"measurement": "Total Score", "setting": "[1]; [3]", "result": 2}, {"measurement": "Edema/fibrosis", "setting": "[1]; [4]", "result": 1}, {"measurement": "Epithelial lesion", "setting": "[1]; [4]", "result": 1}, {"measurement": "Inflammatory infiltrate", "setting": "[1]; [4]", "result": 1}, {"measurement": "Vascular congestion", "setting": "[1]; [4]", "result": 0}, {"measurement": "Total Score", "setting": "[1]; [4]", "result": 3}, {"measurement": "Edema/fibrosis", "setting": "[1]; [5]", "result": 0}, {"measurement": "Epithelial lesion", "setting": "[1]; [5]", "result": 0}, {"measurement": "Inflammatory infiltrate", "setting": "[1]; [5]", "result": 0}, {"measurement": "Vascular congestion", "setting": "[1]; [5]", "result": 0}, {"measurement": "Total Score", "setting": "[1]; [5]", "result": 0}, {"measurement": "Edema/fibrosis", "setting": "[1]; [6]", "result": 0}, {"measurement": "Epithelial lesion", "setting": "[1]; [6]", "result": 1}, {"measurement": "Inflammatory infiltrate", "setting": "[1]; [6]", "result": 1}, {"measurement": "Vascular congestion", "setting": "[1]; [6]", "result": 1}, {"measurement": "Total Score", "setting": "[1]; [6]", "result": 3}, {"measurement": "Edema/fibrosis", "setting": "[1]; [7]", "result": 0}, {"measurement": "Epithelial lesion", "setting": "[1]; [7]", "result": 0}, {"measurement": "Inflammatory infiltrate", "setting": "[1]; [7]", "result": 0}, {"measurement": "Vascular congestion", "setting": "[1]; [7]", "result": 1}, {"measurement": "Total Score", "setting": "[1]; [7]", "result": 1}, {"measurement": "Edema/fibrosis", "setting": "[1]; [8]", "result": 0}, {"measurement": "Epithelial lesion", "setting": "[1]; [8]", "result": 0}, {"measurement": "Inflammatory infiltrate", "setting": "[1]; [8]", "result": 2}, {"measurement": "Vascular congestion", "setting": "[1]; [8]", "result": 2}, {"measurement": "Total Score", "setting": "[1]; [8]", "result": 4}, {"measurement": "Edema/fibrosis", "setting": "[1]; [9]", "result": 0}, {"measurement": "Epithelial lesion", "setting": "[1]; [9]", "result": 4}, {"measurement": "Inflammatory infiltrate", "setting": "[1]; [9]", "result": 3}, {"measurement": "Vascular congestion", "setting": "[1]; [9]", "result": 3}, {"measurement": "Edema/fibrosis", "setting": "[1]; [10]", "result": 0}, {"measurement": "Epithelial lesion", "setting": "[1]; [10]", "result": 2}, {"measurement": "Inflammatory infiltrate", "setting": "[1]; [10]", "result": 0}, {"measurement": "Vascular congestion", "setting": "[1]; [10]", "result": 1}, {"measurement": "Total Score", "setting": "[1]; [10]", "result": 3}, {"measurement": "Edema/fibrosis", "setting": "[1]; [11]", "result": 1}, {"measurement": "Epithelial lesion", "setting": "[1]; [11]", "result": 4}, {"measurement": "Inflammatory infiltrate", "setting": "[1]; [11]", "result": 2}, {"measurement": "Vascular congestion", "setting": "[1]; [11]", "result": 2}, {"measurement": "injuries (histology)", "setting": "[1]; group A, 0.06 mg/day (456.8 μM) P3, 7 days", "result": "minimal or even absent"}, {"measurement": "level of irritation of the vaginal wall", "setting": "[1]; group B, 0.2 mg/day (1522.7 μM) P3, 7 days", "result": "minimal"}, {"measurement": "score of vaginal irritation", "setting": "[1]; group C, 0.4 mg/day (3045.3 μM) P3, 7 days, mice 10 and 12", "result": "moderate (moderate 9–11)"}, {"measurement": "irritation of the vaginal epithelium", "setting": "[1]; group C, 0.4 mg/day (3045.3 μM) P3, 7 days, the other mouse (sample 11)", "result": "minimal"}, {"measurement": "spermatozoa motility", "setting": "[2]", "result": "No significant changes"}, {"measurement": "spermatozoa vitality", "setting": "[2]", "result": "No significant changes"}]}
